Columns and labels:
Assay in all cases: FAC affinity test on galectin-immobilized column
Type in all cases: binding
[1] = biological target: T1, Galectin-1 (Homo sapiens, UniProt P09382); conditions: pyridyl-aminated carbohydrate; galectin-1 immobilized 0.8 mg/ml; less than 5 μl = below interaction detection limit
T1 construct: made in house
Description: (§1) Various galectin molecules-immobilized columns were prepared by the method described by Nakamura S, Yagi F, Totani K, Ito γ and Hirabayashi J in FEBS J., 272, 2784-2799 (2005), using NHS Sepharose (manufactured by Amersham Bioscience) as the carrier for immobilizing galectin molecules and in accordance with the instructions attached thereto (put in parentheses is immobilization concentration, mg galectin/ml carrier).
(§2) Each galectin molecule was immobilized onto the carrier at the following concentration; galectin-1 (0.8 mg/ml), galectin-3 (0.5 mg/ml), galectin-8N (3.6 mg/ml), galectin-8C (4.0 mg/ml), galectin-9N (3.6 mg/ml), galectin-9C (3.0 mg/ml). The carrier on which each galectin was immobilized was charged into a stainless steel miniature column (2 mm in inner diameter, 10 mm in length; manufactured by Shimadzu Corp.).
(§3) A high performance liquid chromatography (HPLC) system was equipped with a galectin molecule-immobilized column, and the test was carried out by the method described in Nakamura S, Yagi F, Totani K, Ito γ and Hirabayashi J in FEBS J., 272, 2784-2799 (2005).
(§4) As the negative control sample, pyridyl-aminated N-acetylglucosamine (PA-GlcNAc, manufactured by Takara Bio, pyridyl-aminated glycosaminoglycan-oligosaccharide sample control) or pyridyl-aminated pullulan (prepared by carrying out pyridylamination of standard pullulan manufactured by Shodex, pyridyl-aminated glycosaminoglycan polysaccharide sample control) was used, and a V−V0 value was calculated from their eluate volume (V0 value) measured by fluorescence detection and the eluate volume (V value) of the sample, namely pyridyl-aminated glycosaminoglycan carbohydrate, and this was used as the index of interaction strength (Protein, Nucleic Acid and Enzyme, 48(8), 1206-1212 (2003)).
(§5) V−V0 values of pyridyl-aminated glycosaminoglycans (HA, CH, DN, NAH, CSA, CSB, CSC, CSD, CSE, KS-I and KS-II) were calculated based on PA-GlcNAc, and V−V0 values of pyridyl-aminated glycosaminoglycan-oligosaccharides (G2K1, G1L1, G4L4, L2L2, L2L4, L4L4, SL2L4 and CH3 to CH12) based on pyridyl-aminated pullulan, respectively.
(§6) In this connection, when the calculated value of the V−V0 value was less than 5 μl, it was regarded as less than the interaction detection limit in this example.

[2] = biological target: T2, Galectin-9N (Homo sapiens, UniProt O00182); conditions: pyridyl-aminated carbohydrate; galectin-9N immobilized 3.6 mg/ml; less than 5 μl = below interaction detection limit
T2 construct: N and C respectively represent N-terminal side carbohydrate-recognition domain and C-terminal side carbohydrate-recognition domain; made in house
T2 sequence (O00182 17-148 limits assumed): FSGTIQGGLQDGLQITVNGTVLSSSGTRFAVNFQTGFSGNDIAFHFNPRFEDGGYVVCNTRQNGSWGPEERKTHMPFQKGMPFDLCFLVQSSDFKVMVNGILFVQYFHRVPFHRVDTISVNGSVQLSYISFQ
Description: as §1, §2, §3, §4, §5, §6

[3] = biological target: T3, Galectin-3 (Homo sapiens, UniProt P17931); conditions: pyridyl-aminated carbohydrate; galectin-3 immobilized 0.5 mg/ml; less than 5 μl = below interaction detection limit
T3 construct: made in house
T3 sequence (P17931 whole entry): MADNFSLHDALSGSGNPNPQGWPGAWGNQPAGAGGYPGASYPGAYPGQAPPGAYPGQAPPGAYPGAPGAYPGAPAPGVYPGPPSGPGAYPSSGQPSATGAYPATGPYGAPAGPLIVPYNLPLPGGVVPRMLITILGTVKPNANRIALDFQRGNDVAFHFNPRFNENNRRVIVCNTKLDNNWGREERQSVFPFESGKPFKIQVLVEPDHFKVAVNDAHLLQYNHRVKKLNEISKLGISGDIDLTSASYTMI
Description: as §1, §2, §3, §4, §5, §6

[4] = biological target: T4, Galectin-9C (Homo sapiens, UniProt O00182); conditions: pyridyl-aminated carbohydrate; galectin-9C immobilized 3.0 mg/ml; less than 5 μl = below interaction detection limit
T4 construct: N and C respectively represent N-terminal side carbohydrate-recognition domain and C-terminal side carbohydrate-recognition domain; made in house
T4 sequence (O00182 227-355 limits assumed): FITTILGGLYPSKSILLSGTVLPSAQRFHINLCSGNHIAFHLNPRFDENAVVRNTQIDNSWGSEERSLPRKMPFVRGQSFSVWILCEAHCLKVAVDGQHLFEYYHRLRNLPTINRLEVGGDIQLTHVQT
Description: as §1, §2, §3, §4, §5, §6

T1 sequence (P09382 whole entry): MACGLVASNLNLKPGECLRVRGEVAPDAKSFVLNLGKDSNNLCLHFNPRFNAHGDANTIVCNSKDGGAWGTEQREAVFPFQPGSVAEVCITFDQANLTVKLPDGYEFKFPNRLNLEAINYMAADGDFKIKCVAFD

Row | SMILES | V − V0 Value [1] | V − V0 Value [2] | V − V0 Value [3] | V − V0 Value [4]
1 | CC(=O)N[C@H]1[C@H](O[C@H]2[C@H](O)[C@@H](O)[C@H](O[C@H]3[C@@H](O)[C@@H](CO)OC(O)[C@@H]3NC(C)=O)O[C@@H]2C(=O)O)O[C@H](CO)[C@H](O)[C@@H]1O (stereo partly drawn) [CH3, GalNAc β1-4 GlcA β1-3 GalNAc] | <5.0 µL | 49.6 ± 8.2 µL | <5.0 µL | –
2 | CC(=O)N[C@H]1[C@H](O[C@H]2[C@H](O)[C@@H](O)[C@H](O[C@H]3[C@@H](O)[C@@H](CO)O[C@@H](O[C@H]4[C@H](O)[C@@H](O)[C@H](O[C@H]5[C@@H](O)[C@@H](CO)OC(O)[C@@H]5NC(C)=O)O[C@@H]4C(=O)O)[C@@H]3NC(C)=O)O[C@@H]2C(=O)O)O[C@H](CO)[C@H](O)[C@@H]1O (stereo partly drawn) [CH5, (GalNAc β1-4 GlcA β1-3)2 GalNAc] | <5.0 µL | 45.6 ± 4.6 µL | <5.0 µL | –
3 | CC(=O)N[C@H]1[C@H](O[C@H]2[C@H](O)[C@@H](O)[C@H](O[C@H]3[C@@H](O)[C@@H](CO)O[C@@H](O[C@H]4[C@H](O)[C@@H](O)[C@H](O[C@H]5[C@@H](O)[C@@H](CO)O[C@@H](O[C@H]6[C@H](O)[C@@H](O)[C@H](O[C@H]7[C@@H](O)[C@@H](CO)OC(O)[C@@H]7NC(C)=O)O[C@@H]6C(=O)O)[C@@H]5NC(C)=O)O[C@@H]4C(=O)O)[C@@H]3NC(C)=O)O[C@@H]2C(=O)O)O[C@H](CO)[C@H](O)[C@@H]1O (stereo partly drawn) [CH7, (GalNAc β1-4 GlcA β1-3)3 GalNAc] | <5.0 µL | 146.4 µL | 10.7 ± 1.9 µL | <5.0 µL
4 | CC(=O)N[C@H]1[C@H](O[C@H]2[C@H](O)[C@@H](O)[C@H](O[C@H]3[C@@H](O)[C@@H](CO)O[C@@H](O[C@H]4[C@H](O)[C@@H](O)[C@H](O[C@H]5[C@@H](O)[C@@H](CO)O[C@@H](O[C@H]6[C@H](O)[C@@H](O)[C@H](O[C@H]7[C@@H](O)[C@@H](CO)OC(O)[C@@H]7NC(C)=O)O[C@@H]6C(=O)O)[C@@H]5NC(C)=O)O[C@@H]4C(=O)O)[C@@H]3NC(C)=O)O[C@@H]2C(=O)O)O[C@H](CO)[C@H](O)[C@@H]1O[C@@H]1O[C@H](C(=O)O)[C@@H](O)[C@H](O)[C@H]1O (stereo partly drawn) [CH8, GlcA β1-3 (GalNAc β1-4 GlcA β1-3)3 GalNAc] | <5.0 µL | 116.2 µL | 7.8 ± 1.9 µL | <5.0 µL
5 | CC(=O)NC1C(OC2C(C(=O)O)OC(OC3C(O)C(CO)OC(OC4C(C(=O)O)OC(OC5C(O)C(CO)OC(OC6C(C(=O)O)OC(OC7C(O)C(CO)OC(OC8C(C(=O)O)OC(OC9C(O)C(CO)OC(O)C9NC(C)=O)C(O)C8O)C7NC(C)=O)C(O)C6O)C5NC(C)=O)C(O)C4O)C3NC(C)=O)C(O)C2O)OC(CO)C(O)C1O (stereo not drawn) [CH9, (GalNAc β1-4 GlcA β1-3)4 GalNAc] | <5.0 µL | 199.4 µL | 15.6 ± 2.5 µL | <5.0 µL
6 | CC(=O)NC1C(OC2C(C(=O)O)OC(OC3C(O)C(CO)OC(OC4C(C(=O)O)OC(OC5C(O)C(CO)OC(OC6C(C(=O)O)OC(OC7C(O)C(CO)OC(OC8C(C(=O)O)OC(OC9C(O)C(CO)OC(OC%10C(C(=O)O)OC(OC%11C(O)C(CO)OC(O)C%11NC(C)=O)C(O)C%10O)C9NC(C)=O)C(O)C8O)C7NC(C)=O)C(O)C6O)C5NC(C)=O)C(O)C4O)C3NC(C)=O)C(O)C2O)OC(CO)C(O)C1O (stereo not drawn) [CH11, (GalNAc β1-4 GlcA β1-3)5 GalNAc] | – | 218.8 µL | 21.4 ± 4.2 µL | –
7 | CC(=O)NC1C(O)OC(CO)C(O)C1OC1OC(C(=O)O)C(OC2OC(CO)C(O)C(OC3OC(C(=O)O)C(OC4OC(CO)C(O)C(OC5OC(C(=O)O)C(OC6OC(CO)C(O)C(OC7OC(C(=O)O)C(OC8OC(CO)C(O)C(OC9OC(C(=O)O)C(OC%10OC(CO)C(O)C(OC%11OC(C(=O)O)C(O)C(O)C%11O)C%10NC(C)=O)C(O)C9O)C8NC(C)=O)C(O)C7O)C6NC(C)=O)C(O)C5O)C4NC(C)=O)C(O)C3O)C2NC(C)=O)C(O)C1O (stereo not drawn) [CH12, GlcA β1-3 (GalNAc β1-4 GlcA β1-3)5 GalNAc] | – | 196.0 µL | 16.8 ± 2.1 µL | –

Reference: patent US7687609B2, “Galectin-glycosaminoglycan complex and method for controlling galectin activity” (National Institute of Advanced Industrial Science and …, priority 2006, dated 2010)
